# Tests used:
# [1] = target: haloalkane dehalogenase LinB (Sphingobium indicum, UniProt D4Z2G1); assay type: biochemical, Sphingomonas paucimobilis UT26
# [2] = target: haloalkane dehalogenase DhaA (Rhodococcus rhodochrous, UniProt P0A3G2); assay type: biochemical, Rhodococcus rhodochrous NCIMB 13064
# [3] = target: T1, haloalkane dehalogenase DbjA (Bradyrhizobium diazoefficiens, UniProt P59337); assay type: biochemical, Bradyrhizobium japonicum USDA110
# [4] = target: haloalkane dehalogenase DhlA (Xanthobacter autotrophicus, UniProt P22643); assay type: biochemical, Xanthobacter autotrophicus GJ10
# haloalkane dehalogenase DhlA, sequence (P22643 whole entry): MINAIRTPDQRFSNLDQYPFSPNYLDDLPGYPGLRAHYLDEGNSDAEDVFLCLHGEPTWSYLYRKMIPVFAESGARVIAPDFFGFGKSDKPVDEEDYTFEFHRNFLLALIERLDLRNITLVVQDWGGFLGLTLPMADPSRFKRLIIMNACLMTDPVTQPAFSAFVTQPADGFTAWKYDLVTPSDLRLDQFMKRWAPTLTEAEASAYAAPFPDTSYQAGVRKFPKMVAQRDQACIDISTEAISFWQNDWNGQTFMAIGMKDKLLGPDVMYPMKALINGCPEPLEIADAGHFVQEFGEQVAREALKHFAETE
# [5] = target: haloalkane dehalogenase LinB L177R (Sphingobium indicum, UniProt D4Z2G1, L177R); assay type: biochemical
# haloalkane dehalogenase LinB L177R, sequence (D4Z2G1 whole entry L177R, looked up): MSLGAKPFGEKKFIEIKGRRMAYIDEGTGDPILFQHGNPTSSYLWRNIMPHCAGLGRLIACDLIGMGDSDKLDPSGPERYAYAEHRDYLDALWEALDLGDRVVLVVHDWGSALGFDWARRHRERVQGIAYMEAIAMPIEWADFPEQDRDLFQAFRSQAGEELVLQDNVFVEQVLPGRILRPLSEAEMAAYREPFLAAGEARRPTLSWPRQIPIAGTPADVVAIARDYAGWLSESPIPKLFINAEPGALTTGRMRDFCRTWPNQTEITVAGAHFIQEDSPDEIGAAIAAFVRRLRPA
# [6] = target: haloalkane dehalogenase LinB L177H (Sphingobium indicum, UniProt D4Z2G1, L177H); assay type: biochemical
# haloalkane dehalogenase LinB L177H, sequence (D4Z2G1 whole entry L177H, looked up): as the sequence (D4Z2G1 whole entry L177R, looked up) above, with R177H counted along it
# [7] = target: haloalkane dehalogenase LinB L177Y (Sphingobium indicum, UniProt D4Z2G1, L177Y); assay type: biochemical
# haloalkane dehalogenase LinB L177Y, sequence (D4Z2G1 whole entry L177Y, looked up): as the sequence (D4Z2G1 whole entry L177R, looked up) above, with R177Y counted along it
# [8] = target: haloalkane dehalogenase LinB L177K (Sphingobium indicum, UniProt D4Z2G1, L177K); assay type: biochemical
# haloalkane dehalogenase LinB L177K, sequence (D4Z2G1 whole entry L177K, looked up): as the sequence (D4Z2G1 whole entry L177R, looked up) above, with R177K counted along it
# [9] = target: haloalkane dehalogenase LinB L177A (Sphingobium indicum, UniProt D4Z2G1, L177A); assay type: biochemical
# haloalkane dehalogenase LinB L177A, sequence (D4Z2G1 whole entry L177A, looked up): as the sequence (D4Z2G1 whole entry L177R, looked up) above, with R177A counted along it
# [10] = target: haloalkane dehalogenase LinB L177C (Sphingobium indicum, UniProt D4Z2G1, L177C); assay type: biochemical
# haloalkane dehalogenase LinB L177C, sequence (D4Z2G1 whole entry L177C, looked up): as the sequence (D4Z2G1 whole entry L177R, looked up) above, with R177C counted along it
# [11] = target: haloalkane dehalogenase LinB L177D (Sphingobium indicum, UniProt D4Z2G1, L177D); assay type: biochemical
# haloalkane dehalogenase LinB L177D, sequence (D4Z2G1 whole entry L177D, looked up): as the sequence (D4Z2G1 whole entry L177R, looked up) above, with R177D counted along it
# [12] = target: haloalkane dehalogenase LinB L177F (Sphingobium indicum, UniProt D4Z2G1, L177F); assay type: biochemical
# haloalkane dehalogenase LinB L177F, sequence (D4Z2G1 whole entry L177F, looked up): as the sequence (D4Z2G1 whole entry L177R, looked up) above, with R177F counted along it
# [13] = target: haloalkane dehalogenase LinB L177W (Sphingobium indicum, UniProt D4Z2G1, L177W); assay type: biochemical
# haloalkane dehalogenase LinB L177W, sequence (D4Z2G1 whole entry L177W, looked up): as the sequence (D4Z2G1 whole entry L177R, looked up) above, with R177W counted along it
# [14] = target: haloalkane dehalogenase LinB L177V (Sphingobium indicum, UniProt D4Z2G1, L177V); assay type: biochemical
# haloalkane dehalogenase LinB L177V, sequence (D4Z2G1 whole entry L177V, looked up): as the sequence (D4Z2G1 whole entry L177R, looked up) above, with R177V counted along it
# [15] = target: haloalkane dehalogenase LinB L177T (Sphingobium indicum, UniProt D4Z2G1, L177T); assay type: biochemical
# haloalkane dehalogenase LinB L177T, sequence (D4Z2G1 whole entry L177T, looked up): as the sequence (D4Z2G1 whole entry L177R, looked up) above, with R177T counted along it
# [16] = target: haloalkane dehalogenase LinB L177S (Sphingobium indicum, UniProt D4Z2G1, L177S); assay type: biochemical
# haloalkane dehalogenase LinB L177S, sequence (D4Z2G1 whole entry L177S, looked up): as the sequence (D4Z2G1 whole entry L177R, looked up) above, with R177S counted along it
# [17] = target: haloalkane dehalogenase LinB L177Q (Sphingobium indicum, UniProt D4Z2G1, L177Q); assay type: biochemical
# haloalkane dehalogenase LinB L177Q, sequence (D4Z2G1 whole entry L177Q, looked up): as the sequence (D4Z2G1 whole entry L177R, looked up) above, with R177Q counted along it
# [18] = target: haloalkane dehalogenase LinB L177M (Sphingobium indicum, UniProt D4Z2G1, L177M); assay type: biochemical
# haloalkane dehalogenase LinB L177M, sequence (D4Z2G1 whole entry L177M, looked up): as the sequence (D4Z2G1 whole entry L177R, looked up) above, with R177M counted along it
# [19] = target: haloalkane dehalogenase LinB wild type (Sphingobium indicum, UniProt D4Z2G1); assay type: biochemical, Sphingomonas paucimobilis UT26
# haloalkane dehalogenase LinB wild type, sequence (D4Z2G1 whole entry): as the sequence (D4Z2G1 whole entry L177R, looked up) above, with R177L counted along it
# [20] = target: haloalkane dehalogenase LinB L177G (Sphingobium indicum, UniProt D4Z2G1, L177G); assay type: biochemical
# haloalkane dehalogenase LinB L177G, sequence (D4Z2G1 whole entry L177G, looked up): as the sequence (D4Z2G1 whole entry L177R, looked up) above, with R177G counted along it
# [21] = target: T1, haloalkane dehalogenase DbjA; assay type: biochemical, Bradyrhizobium japonicum USDA110; conditions: for Relative enzyme activity (%) 5% of solvent / Relative enzyme activity (%) 10% of solvent / Relative enzyme activity (%) 20% of solvent: pH 8.6
# haloalkane dehalogenase LinB, sequence (D4Z2G1 whole entry): as the sequence (D4Z2G1 whole entry L177R, looked up) above, with R177L counted along it
# haloalkane dehalogenase DhaA, sequence (P0A3G2 whole entry): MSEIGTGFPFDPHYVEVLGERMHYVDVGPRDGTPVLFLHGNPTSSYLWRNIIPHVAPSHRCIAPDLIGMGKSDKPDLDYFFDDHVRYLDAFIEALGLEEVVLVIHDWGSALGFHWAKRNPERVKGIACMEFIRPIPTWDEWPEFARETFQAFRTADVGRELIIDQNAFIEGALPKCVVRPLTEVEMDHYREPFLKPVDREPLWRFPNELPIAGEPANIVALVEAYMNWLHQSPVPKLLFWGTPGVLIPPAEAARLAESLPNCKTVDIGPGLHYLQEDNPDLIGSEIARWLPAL
# T1 sequence (P59337 whole entry): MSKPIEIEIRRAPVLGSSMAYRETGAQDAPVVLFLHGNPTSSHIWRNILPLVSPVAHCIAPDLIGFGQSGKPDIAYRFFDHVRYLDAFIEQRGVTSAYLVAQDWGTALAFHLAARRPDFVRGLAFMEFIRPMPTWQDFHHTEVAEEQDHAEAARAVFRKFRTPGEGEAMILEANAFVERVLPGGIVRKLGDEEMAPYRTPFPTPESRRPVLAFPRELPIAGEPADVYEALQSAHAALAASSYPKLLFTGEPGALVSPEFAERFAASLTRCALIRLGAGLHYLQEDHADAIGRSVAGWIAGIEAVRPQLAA
compound,measurement,setting,value
"CC(C)(C)C(Br)CBr (racemic) [1,2-dibromo-3,3-dimethylbutane]",E-values LinB,[1],1.1
"CCC(Br)CBr (racemic) [1,2-dibromobutane]",E-values DhaA,[2],2
same,E-values DbjA,[3],2.7
same,E-values DhlA,[4],1.1
same,E-values LinB,[1],10
"CC(Br)CCBr (racemic) [1,3-dibromobutane]",E-values DhaA,[2],1.3
same,E-values DbjA,[3],1.4
same,E-values DhlA,[4],2
same,E-values LinB,[1],4.6
"CC(Cl)CCCl (racemic) [1,3-dichlorobutane]",E-values DhaA,[2],1.6
same,E-values DbjA,[3],1.0
same,E-values DhlA,[4],2.8
same,E-values LinB,[1],2.6
CC(CCl)CBr (racemic) [1-bromo-3-chloro-2-methylpropane],E-values DhaA,[2],1.7
same,E-values DbjA,[3],1.4
same,E-values DhlA,[4],1.8
same,E-values LinB,[1],1.8
CCCCCC(C)Br (racemic) [2-bromoheptane],E-values DhaA,[2],2.9
same,E-values DbjA,[3],28
same,E-values DhlA,[4],2.4
same,E-values LinB,[1],2.8
CCCCC(C)Br (racemic) [2-bromohexane],E-values DhaA,[2],4
same,E-values DbjA,[3],35
same,E-values LinB,[1],12
"COC(=O)C(Br)CCBr (racemic) [methyl 2,4-dibromobutyrate]",E-values DhaA,[2],1
same,E-values DbjA,[3],1.3
same,E-values DhlA,[4],1.6
same,E-values LinB,[1],1.9
"BrCCBr [1,2-dibromoethane]",Relative activities (% of wt) L177R,[5],68 % of wt
same,Relative activities (% of wt) L177H,[6],55 % of wt
same,Relative activities (% of wt) L177Y,[7],16 % of wt
same,Relative activities (% of wt) L177K,[8],97 % of wt
same,Relative activities (% of wt) L177A,[9],155 % of wt
same,Relative activities (% of wt) L177C,[10],52 % of wt
same,Km,[11],14 mM
same,Relative activities (% of wt) L177D,[11],77 % of wt
same,Relative activities (% of wt) L177F,[12],70 % of wt
same,Relative activities (% of wt) L177W,[13],7 % of wt
same,Relative activities (% of wt) L177V,[14],84 % of wt
same,Relative activities (% of wt) L177T,[15],107 % of wt
same,Relative activities (% of wt) L177S,[16],84 % of wt
same,Relative activities (% of wt) L177Q,[17],123 % of wt
same,Relative activities (% of wt) L177M,[18],126 % of wt
same,Relative activities (% of wt) wt1,[19],100 % of wt
same,Relative activities (% of wt) wt2,[19],100 % of wt
same,Relative activities (% of wt) L177G,[20],78 % of wt
"CC(Br)CBr (stereo not shown) [1,2-dibromopropane]",E-values DhaA,[2],1.3
same,E-values DbjA,[3],2.6
same,E-values DhlA,[4],3
same,E-values LinB,[1],1.3
"CC(Cl)CCl (stereo not shown) [1,2-dichloropropane]",E-values DhlA,[4],2
"ICCCI [1,3-diidopropane]",Relative activities (% of wt) L177R,[5],127 % of wt
same,Relative activities (% of wt) L177H,[6],140 % of wt
same,Relative activities (% of wt) L177Y,[7],102 % of wt
same,Relative activities (% of wt) L177K,[8],132 % of wt
same,Relative activities (% of wt) L177A,[9],360 % of wt
same,Relative activities (% of wt) L177C,[10],192 % of wt
same,Relative activities (% of wt) L177D,[11],209 % of wt
same,Relative activities (% of wt) L177F,[12],130 % of wt
same,Relative activities (% of wt) L177W,[13],117 % of wt
same,Relative activities (% of wt) L177V,[14],206 % of wt
same,Relative activities (% of wt) L177T,[15],108 % of wt
same,Relative activities (% of wt) L177S,[16],123 % of wt
same,Relative activities (% of wt) L177Q,[17],159 % of wt
same,Relative activities (% of wt) L177M,[18],202 % of wt
same,Relative activities (% of wt) wt1,[19],100 % of wt
same,Relative activities (% of wt) wt2,[19],100 % of wt
same,Relative activities (% of wt) L177G,[20],164 % of wt
"C1COCCO1 [1,4-dioxane]",DbjA activity in the presence of the solvent in the reaction medium,[21],increasing activity
same,Relative enzyme activity (%) 5% of solvent,[21],121.4 ± 3.9%
same,Relative enzyme activity (%) 10% of solvent,[21],139.9 ± 7.8%
same,Relative enzyme activity (%) 20% of solvent,[21],152.0 ± 9.5%
CCCCBr [1-bromobutane],Relative activities (% of wt) L177R,[5],165 % of wt
same,Relative activities (% of wt) L177H,[6],224 % of wt
same,Relative activities (% of wt) L177Y,[7],112 % of wt
same,Relative activities (% of wt) L177K,[8],201 % of wt
same,Relative activities (% of wt) L177A,[9],356 % of wt
same,Relative activities (% of wt) L177C,[10],243 % of wt
same,Relative activities (% of wt) L177D,[11],347 % of wt
same,Relative activities (% of wt) L177F,[12],243 % of wt
same,Relative activities (% of wt) L177W,[13],60 % of wt
same,Relative activities (% of wt) L177V,[14],132 % of wt
same,Relative activities (% of wt) L177T,[15],553 % of wt
same,Relative activities (% of wt) L177S,[16],381 % of wt
same,Relative activities (% of wt) L177Q,[17],458 % of wt
same,Relative activities (% of wt) L177M,[18],227 % of wt
same,Relative activities (% of wt) wt1,[19],100 % of wt
same,Relative activities (% of wt) wt2,[19],100 % of wt
same,Relative activities (% of wt) L177G,[20],380 % of wt
CCCCCl [1-chlorobutane],Km,[11],21.9 mM
CCCCI [1-iodobutane],Relative activities (% of wt) L177R,[5],161 % of wt
same,Relative activities (% of wt) L177H,[6],208 % of wt
same,Relative activities (% of wt) L177Y,[7],97 % of wt
same,Relative activities (% of wt) L177K,[8],131 % of wt
same,Relative activities (% of wt) L177A,[9],133 % of wt
same,Relative activities (% of wt) L177C,[10],210 % of wt
same,Relative activities (% of wt) L177D,[11],259 % of wt
same,Relative activities (% of wt) L177F,[12],126 % of wt
same,Relative activities (% of wt) L177W,[13],58 % of wt
same,Relative activities (% of wt) L177V,[14],101 % of wt
same,Relative activities (% of wt) L177T,[15],424 % of wt
same,Relative activities (% of wt) L177S,[16],363 % of wt
same,Relative activities (% of wt) L177Q,[17],373 % of wt
same,Relative activities (% of wt) L177M,[18],187 % of wt
same,Relative activities (% of wt) wt1,[19],100 % of wt
same,Relative activities (% of wt) wt2,[19],100 % of wt
same,Relative activities (% of wt) L177G,[20],344 % of wt
C=C(C)CCl [3-chloro-2-methylpropene],Relative activities (% of wt) L177R,[5],83 % of wt
same,Relative activities (% of wt) L177H,[6],82 % of wt
same,Relative activities (% of wt) L177Y,[7],78 % of wt
same,Relative activities (% of wt) L177K,[8],110 % of wt
same,Relative activities (% of wt) L177A,[9],199 % of wt
same,Relative activities (% of wt) L177C,[10],157 % of wt
same,Relative activities (% of wt) L177D,[11],25 % of wt
same,Relative activities (% of wt) L177F,[12],98 % of wt
same,Relative activities (% of wt) L177W,[13],91 % of wt
same,Relative activities (% of wt) L177V,[14],79 % of wt
same,Relative activities (% of wt) L177T,[15],96 % of wt
same,Relative activities (% of wt) L177S,[16],65 % of wt
same,Relative activities (% of wt) L177Q,[17],138 % of wt
same,Relative activities (% of wt) L177M,[18],100 % of wt
same,Relative activities (% of wt) wt1,[19],100 % of wt
same,Relative activities (% of wt) wt2,[19],100 % of wt
same,Relative activities (% of wt) L177G,[20],200 % of wt
NC=O [Formamide],Relative enzyme activity (%) 5% of solvent,[21],73.4 ± 7.6%
same,Relative enzyme activity (%) 10% of solvent,[21],76.3 ± 5.0%
same,Relative enzyme activity (%) 20% of solvent,[21],16.3 ± 0.6%
CO [Methanol],DbjA activity in the presence of the solvent in the reaction medium,[21],increasing activity
same,Relative enzyme activity (%) 5% of solvent,[21],93.5 ± 0.9%
same,Relative enzyme activity (%) 10% of solvent,[21],128.7 ± 3.5%
same,Relative enzyme activity (%) 20% of solvent,[21],160.7 ± 2.0%
"CN(C)C=O [N,N-dimethylformamide]",Relative enzyme activity (%) 5% of solvent,[21],110.5 ± 11.6%
same,Relative enzyme activity (%) 10% of solvent,[21],112.6 ± 3.8%
same,Relative enzyme activity (%) 20% of solvent,[21],101.9 ± 1.0%
CC(C)=O [acetone],DbjA activity in the presence of the solvent in the reaction medium,[21],increasing activity
same,increase of reaction rate compared to that in the glycine buffer,[21],1.68 times
same,Relative enzyme activity (%) 5% of solvent,[21],113.8 ± 7.3%
same,Relative enzyme activity (%) 10% of solvent,[21],140.3 ± 2.1%
same,Relative enzyme activity (%) 20% of solvent,[21],168.2 ± 3.1%
CC#N [acetonitrile],Relative enzyme activity (%) 5% of solvent,[21],117.5 ± 8.9%
same,Relative enzyme activity (%) 10% of solvent,[21],124.1 ± 1.0%
same,Relative enzyme activity (%) 20% of solvent,[21],0.0 ± 0.0%
OCCO [ethyleneglycol],Relative enzyme activity (%) 5% of solvent,[21],87.1 ± 9.8%
same,Relative enzyme activity (%) 10% of solvent,[21],80.5 ± 8.9%
same,Relative enzyme activity (%) 20% of solvent,[21],109.8 ± 4.0%
C1CCOC1 [tetrahydrofurane],Relative enzyme activity (%) 5% of solvent,[21],111.9 ± 13.4%
same,Relative enzyme activity (%) 10% of solvent,[21],96.9 ± 9.0%
same,Relative enzyme activity (%) 20% of solvent,[21],0.0 ± 0.0%
